Source: ChEMBL document CHEMBL1139986, “Synthesis and biodistribution of 8-iodo-11-(4-methylpiperazino)-5H-dibenzo[b,e][1,4]-diazepine: Iozapine” (Bioorg Med Chem Lett, 2007)

Assays:
[1] = tested on: Thyroid gland; assay: Biodistribution in BALB/c mouse thyroid at 7 to 8 KBq, iv after 15 mins; format: ADME, organism-based; conditions: in vivo, 0.25 h
[2] = tested on: Thyroid gland; assay: Biodistribution in BALB/c mouse thyroid at 7 to 8 KBq, iv after 60 mins; format: ADME, organism-based; conditions: in vivo, 1 h
[3] = tested on: Thyroid gland; assay: Biodistribution in BALB/c mouse thyroid at 7 to 8 KBq, iv after 120 mins; format: ADME, organism-based; conditions: in vivo, 2 h
[4] = tested on: Brain; assay: Biodistribution in BALB/c mouse brain at 7 to 8 KBq, iv after 5 mins; format: ADME, organism-based; conditions: in vivo
[5] = tested on: Brain; assay: Biodistribution in BALB/c mouse brain at 7 to 8 KBq, iv after 15 mins; format: ADME, organism-based; conditions: in vivo, 0.25 h
[6] = tested on: Brain; assay: Biodistribution in BALB/c mouse brain at 7 to 8 KBq, iv after 60 mins; format: ADME, organism-based; conditions: in vivo, 1 h
[7] = tested on: Brain; assay: Biodistribution in BALB/c mouse brain at 7 to 8 KBq, iv after 120 mins; format: ADME, organism-based; conditions: in vivo, 2 h
[8] = tested on: Mus musculus; assay: Biodistribution in BALB/c mouse upper body at 7 to 8 KBq, iv after 5 mins; format: ADME, organism-based; conditions: in vivo
[9] = tested on: Mus musculus; assay: Biodistribution in BALB/c mouse upper body at 7 to 8 KBq, iv after 15 mins; format: ADME, organism-based; conditions: in vivo, 0.25 h
[10] = tested on: Mus musculus; assay: Biodistribution in BALB/c mouse upper body at 7 to 8 KBq, iv after 60 mins; format: ADME, organism-based; conditions: in vivo, 1 h
[11] = tested on: Mus musculus; assay: Biodistribution in BALB/c mouse upper body at 7 to 8 KBq, iv after 120 mins; format: ADME, organism-based; conditions: in vivo, 2 h
[12] = tested on: Mus musculus; assay: Biodistribution in BALB/c mouse lower body at 7 to 8 KBq, iv after 5 mins; format: ADME, organism-based; conditions: in vivo
[13] = tested on: Mus musculus; assay: Biodistribution in BALB/c mouse lower body at 7 to 8 KBq, iv after 15 mins; format: ADME, organism-based; conditions: in vivo, 0.25 h
[14] = tested on: Mus musculus; assay: Biodistribution in BALB/c mouse lower body at 7 to 8 KBq, iv after 60 mins; format: ADME, organism-based; conditions: in vivo, 1 h
[15] = tested on: Mus musculus; assay: Biodistribution in BALB/c mouse lower body at 7 to 8 KBq, iv after 120 mins; format: ADME, organism-based; conditions: in vivo, 2 h
[16] = tested on: Cortex; assay: Biodistribution in BALB/c mouse cortex at 7 to 8 KBq, iv after 5 mins; format: ADME, organism-based; conditions: in vivo
[17] = tested on: Cortex; assay: Biodistribution in BALB/c mouse cortex at 7 to 8 KBq, iv after 15 mins; format: ADME, organism-based; conditions: in vivo, 0.25 h
[18] = tested on: Cortex; assay: Biodistribution in BALB/c mouse cortex at 7 to 8 KBq, iv after 60 mins; format: ADME, organism-based; conditions: in vivo, 1 h
[19] = tested on: Cortex; assay: Biodistribution in BALB/c mouse cortex at 7 to 8 KBq, iv after 120 mins; format: ADME, organism-based; conditions: in vivo, 2 h
[20] = tested on: Striatum; assay: Biodistribution in BALB/c mouse striatum at 7 to 8 KBq, iv after 15 mins; format: ADME, organism-based; conditions: in vivo, 0.25 h
[21] = tested on: Striatum; assay: Biodistribution in BALB/c mouse striatum at 7 to 8 KBq, iv after 60 mins; format: ADME, organism-based; conditions: in vivo, 1 h
[22] = tested on: Striatum; assay: Biodistribution in BALB/c mouse striatum at 7 to 8 KBq, iv after 120 mins; format: ADME, organism-based; conditions: in vivo, 2 h
[23] = tested on: Hippocampus; assay: Biodistribution in BALB/c mouse hippocampus at 7 to 8 KBq, iv after 5 mins; format: ADME, organism-based; conditions: in vivo
[24] = tested on: Hippocampus; assay: Biodistribution in BALB/c mouse hippocampus at 7 to 8 KBq, iv after 15 mins; format: ADME, organism-based; conditions: in vivo, 0.25 h
[25] = tested on: Hippocampus; assay: Biodistribution in BALB/c mouse hippocampus at 7 to 8 KBq, iv after 60 mins; format: ADME, organism-based; conditions: in vivo, 1 h
[26] = tested on: Hippocampus; assay: Biodistribution in BALB/c mouse hippocampus at 7 to 8 KBq, iv after 120 mins; format: ADME, organism-based; conditions: in vivo, 2 h
[27] = tested on: Thalamus; assay: Biodistribution in BALB/c mouse thalamus at 7 to 8 KBq, iv after 5 mins; format: ADME, organism-based; conditions: in vivo
[28] = tested on: Thalamus; assay: Biodistribution in BALB/c mouse thalamus at 7 to 8 KBq, iv after 15 mins; format: ADME, organism-based; conditions: in vivo, 0.25 h
[29] = tested on: Thalamus; assay: Biodistribution in BALB/c mouse thalamus at 7 to 8 KBq, iv after 60 mins; format: ADME, organism-based; conditions: in vivo, 1 h
[30] = tested on: Thalamus; assay: Biodistribution in BALB/c mouse thalamus at 7 to 8 KBq, iv after 120 mins; format: ADME, organism-based; conditions: in vivo, 2 h
[31] = tested on: Cerebellum; assay: Biodistribution in BALB/c mouse cerebellum at 7 to 8 KBq, iv after 5 mins; format: ADME, organism-based; conditions: in vivo
[32] = tested on: Cerebellum; assay: Biodistribution in BALB/c mouse cerebellum at 7 to 8 KBq, iv after 15 mins; format: ADME, organism-based; conditions: in vivo, 0.25 h
[33] = tested on: Cerebellum; assay: Biodistribution in BALB/c mouse cerebellum at 7 to 8 KBq, iv after 60 mins; format: ADME, organism-based; conditions: in vivo, 1 h
[34] = tested on: Cerebellum; assay: Biodistribution in BALB/c mouse cerebellum at 7 to 8 KBq, iv after 120 mins; format: ADME, organism-based; conditions: in vivo, 2 h
[35] = tested on: Medulla; assay: Biodistribution in BALB/c mouse medulla at 7 to 8 KBq, iv after 5 mins; format: ADME, organism-based, Medulla of organ; conditions: in vivo
[36] = tested on: Medulla; assay: Biodistribution in BALB/c mouse medulla at 7 to 8 KBq, iv after 15 mins; format: ADME, organism-based, Medulla of organ; conditions: in vivo, 0.25 h
[37] = tested on: Medulla; assay: Biodistribution in BALB/c mouse medulla at 7 to 8 KBq, iv after 60 mins; format: ADME, organism-based, Medulla of organ; conditions: in vivo, 1 h
[38] = tested on: Medulla; assay: Biodistribution in BALB/c mouse medulla at 7 to 8 KBq, iv after 120 mins; format: ADME, organism-based, Medulla of organ; conditions: in vivo, 2 h

Work on `CN1CCN(C2=Nc3cc([125I])ccc3Nc3ccccc32)CC1` [[125I]I-OZAPINE] yielded a Drug uptake [1] of 0.13 %ID, a Drug uptake [2] of 0.68 %ID and a Drug uptake [3] of 1.3 %ID. For the same compound, the Drug uptake [4] was 3.49 %ID, the Drug uptake [5] was 2.79 %ID and the Drug uptake [6] was 0.8 %ID. The Drug uptake [7] was 0.1 %ID, the Drug uptake [8] was 23.3 %ID and the Drug uptake [9] was 17.41 %ID. For the same compound, the Drug uptake [10] was 11.54 %ID, the Drug uptake [11] was 5.72 %ID and the Drug uptake [12] was 18.94 %ID. The Drug uptake [13] was 15.02 %ID, the Drug uptake [14] was 10.24 %ID and the Drug uptake [15] was 4.97 %ID. For the same compound, the Drug uptake [16] was 7.22 %ID, the Drug uptake [17] was 6.65 %ID and the Drug uptake [18] was 2.05 %ID. It also gave a Drug uptake [19] of 0.22 %ID, a Drug uptake [20] of 6.76 %ID and a Drug uptake [21] of 2.11 %ID. For the same compound, the Drug uptake [22] was 0.2 %ID, the Drug uptake [23] was 7.07 %ID and the Drug uptake [24] was 6.64 %ID. The Drug uptake [25] was 2.52 %ID, the Drug uptake [26] was 0.27 %ID and the Drug uptake [27] was 7.82 %ID. For the same compound, the Drug uptake [28] was 6.15 %ID, the Drug uptake [29] was 1.56 %ID and the Drug uptake [30] was 0.2 %ID. It also gave a Drug uptake [31] of 6.16 %ID, a Drug uptake [32] of 4.71 %ID and a Drug uptake [33] of 0.94 %ID. The Drug uptake [34] was 0.12 %ID, the Drug uptake [35] was 6.78 %ID and the Drug uptake [36] was 5.23 %ID. For the same compound, the Drug uptake [37] was 1.2 %ID and the Drug uptake [38] was 0.16 %ID.
